What is called IC50 is the concentration that gives 50% inhibition.

The assay has as its target T1, interaction between biotinylated human S100A9 and human RAGE-Fc (Homo sapiens, UniProt P06702).
T1 construct: made in house; host or cells: E. coli BL21(DE3)/pET1120 (pLR757)
T1 sequence (P06702 1-114): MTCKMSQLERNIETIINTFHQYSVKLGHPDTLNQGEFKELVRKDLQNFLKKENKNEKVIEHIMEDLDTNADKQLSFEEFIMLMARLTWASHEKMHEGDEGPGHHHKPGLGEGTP
Description: AlphaScreen inhibition assay, Biot-hS100A9:hRAGE-Fc (S100A9-RAGE inhibition assay). Conditions: biot-hS100A9 and rhRAGE-Fc, Ca2+ and Zn2+ in buffer. The assay is classed as binding. A digest of the protocol:
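Biotinylated human S100A9, in HBS-P with CaCl2 and ZnCl2, preincubated 1 h at room temperature in the dark with compound (final DMSO ≤1.25%), then combined with rhRAGE-Fc on protein A Acceptor beads plus streptavidin Donor beads (20 μg/mL each). Protein levels batch-dependent; percent inhibition from AlphaScreen signal vs DMSO-only control.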
A general note: Bead proximity is the source of the signal in Alpha formats.
For `Cc1cc2nc3n(c2cc1C)C(NC(=O)c1ccccc1)(C(F)(F)F)C(=O)N3` (centres unmarked) [Example 14, N-[10,11-dimethyl-4-oxo-3-(trifluoromethyl)-2,5,7-triazatricyclo[6.4.0.0^2,6]dodeca-1(8),6,9,11-tetraen-3-yl]benzamide], the IC50 was determined as 3500 nM.
The value for `CC(C)CC(=O)N1CCC(C(=O)NC2(C(F)(F)F)C(=O)Nc3nc4cc(Cl)c(Cl)cc4n32)CC1` (centres unmarked) [Example 45, N-[10,11-dichloro-4-oxo-3-(trifluoromethyl)-2,5,7-triazatricyclo[6.4.0.0^2,6]dodeca-1(12),6,8,10-tetraen-3-yl]-1-(3-methylbutanoyl)piperidine-4-carboxamide] was 3000 nM.
On to `Cc1cc2nc3n(c2cc1C)C(NC(=O)CCC1CCCC1)(C(F)(F)F)C(=O)N3` (single isomer, unassigned) [Example 218b, 3-cyclopentyl-N-[10,11-dimethyl-4-oxo-3-(trifluoromethyl)-2,5,7-triazatricyclo[6.4.0.0^2,6]dodeca-1(12),6,8,10-tetraen-3-yl]propanamide], for which the IC50 turned out to be 730 nM.
The value for `COCCNc1cccc(C(=O)NC2(C(F)(F)F)C(=O)Nc3nc4cc(Cl)c(Cl)cc4n32)n1` (centres unmarked) [Example 71, N-[10,11-dichloro-4-oxo-3-(trifluoromethyl)-2,5,7-triazatricyclo[6.4.0.0^2,6]dodeca-1(12),6,8,10-tetraen-3-yl]-6-[(2-methoxyethyl)amino]pyridine-2-carboxamide] was 200 nM; that for `O=C(CCC1CCCC1)NC1(C(F)(F)F)C(=O)Nc2nc3c(-c4ccc([N+](=O)[O-])cc4)cccc3n21` (centres unmarked) [Example 193, 3-cyclopentyl-N-[9-(4-nitrophenyl)-4-oxo-3-(trifluoromethyl)-2,5,7-triazatricyclo[6.4.0.0^2,6]dodeca-1(12),6,8,10-tetraen-3-yl]propanamide] was 1560 nM; that for `O=C(CCC1CCCC1)NC1(C(F)(F)F)C(=O)Nc2nc3c(F)c(Br)ccc3n21` (centres unmarked) [Example 177, N-[10-bromo-9-fluoro-4-oxo-3-(trifluoromethyl)-2,5,7-triazatricyclo[6.4.0.0^2,6]dodeca-1(12),6,8,10-tetraen-3-yl]-3-cyclopentylpropanamide] was 1630 nM.
Consider `O=C(CCC1CCCCC1)NC1(C(F)(F)F)C(=O)Nc2nc3cc(Cl)c(Cl)cc3n21` (centres unmarked) [Example 53, 3-cyclohexyl-N-[10,11-dichloro-4-oxo-3-(trifluoromethyl)-2,5,7-triazatricyclo[6.4.0.0^2,6]-dodeca-1(12),6,8,10-tetraen-3-yl]propanamide], for which the IC50 is 700 nM.
The value for `O=C(CCC1CCCC1)NC1(C(F)(F)F)C(=O)Nc2nc3cc(Cl)c(Cl)cc3n21` (single isomer, unassigned) [Example 219b, 3-cyclopentyl-N-[10,11-dichloro-4-oxo-3-(trifluoromethyl)-2,5,7-triazatricyclo[6.4.0.0^2,6]dodeca-1(12),6,8,10-tetraen-3-yl]propanamide] was 230 nM; that for `O=C(NC1(C(F)(F)F)C(=O)Nc2nc3cc(Cl)c(Cl)cc3n21)c1cccc(Cl)c1` (centres unmarked) [Example 56, 3-chloro-N-[10,11-dichloro-4-oxo-3-(trifluoromethyl)-2,5,7-triazatricyclo[6.4.0.0^2,6]-dodeca-1(12),6,8,10-tetraen-3-yl]benzamide] was 1400 nM; that for `Cc1cc2nc3n(c2cc1C)C(NC(=O)[C@@H](C)CC1CCCC1)(C(F)(F)F)C(=O)N3` (mixture of isomers) [Example 145, (2S)-3-cyclopentyl-N-[10,11-dimethyl-4-oxo-3-(trifluoromethyl)-2,5,7-triazatricyclo[6.4.0.0^2,6]dodeca-1(8),6,9,11-tetraen-3-yl]-2-methylpropanamide] was 3120 nM.
The same measure for `O=C(NC1(C(F)(F)F)C(=O)Nc2nc3cc(Cl)c(Cl)cc3n21)C1CN(c2ccccn2)C1` (centres unmarked) [Example 52, N-[10,11-dichloro-4-oxo-3-(trifluoromethyl)-2,5,7-triazatricyclo[6.4.0.0^2,6]dodeca-1(12),6,8,10-tetraen-3-yl]-1-(pyridin-2-yl)azetidine-3-carboxamide]: 700 nM; for `O=C(NC1(C(F)(F)F)C(=O)Nc2nc3cc(Cl)c(Cl)cc3n21)c1cccc(NC2CCCCC2)n1` (centres unmarked) [Example 66, 6-(cyclohexylamino)-N-[10,11-dichloro-4-oxo-3-(trifluoromethyl)-2,5,7-triazatricyclo-[6.4.0.0^2,6]dodeca-1(12),6,8,10-tetraen-3-yl]pyridine-2-carboxamide]: 400 nM.
With `Cc1cc2nc3n(c2cc1C)C(NC(=O)c1cccc(C2CCCCC2)n1)(C(F)(F)F)C(=O)N3` (centres unmarked) [Example 36, 6-cyclohexyl-N-[10,11-dimethyl-4-oxo-3-(trifluoromethyl)-2,5,7-triazatricyclo[6.4.0.0^2,6]-dodeca-1(12),6,8,10-tetraen-3-yl]pyridine-2-carboxamide], the IC50 was 3700 nM.
The same measure for `Cc1cc2nc3n(c2cc1C)C(NC(=O)c1ccc(Cl)nc1)(C(F)(F)F)C(=O)N3` (centres unmarked) [Example 28, 6-chloro-N-[10,11-dimethyl-4-oxo-3-(trifluoromethyl)-2,5,7-triazatricyclo[6.4.0.0^2,6]-dodeca-1(12),6,8,10-tetraen-3-yl]pyridine-3-carboxamide]: 3700 nM; for `CC(=O)N1CC(C(=O)NC2(C(F)(F)F)C(=O)Nc3nc4cc(Cl)c(Cl)cc4n32)C1` (centres unmarked) [Example 49, 1-acetyl-N-[10,11-dichloro-4-oxo-3-(trifluoromethyl)-2,5,7-triazatricyclo-[6.4.0.0^2,6]-dodeca-1(12),6,8,10-tetraen-3-yl]azetidine-3-carboxamide]: 3900 nM; for `COCCNc1nc(C(=O)NC2(C(F)(F)F)C(=O)Nc3nc4cc(C)c(C)cc4n32)cs1` (centres unmarked) [Example 119, N-[10,11-dimethyl-4-oxo-3-(trifluoromethyl)-2,5,7-triazatricyclo[6.4.0.0^2,6]dodeca-1(8),6,9,11-tetraen-3-yl]-2-[(2-methoxyethyl)amino]-1,3-thiazole-4-carboxamide]: 1820 nM.
The same measure for `O=C(NC1(C(F)(F)F)C(=O)Nc2nc3cc(Cl)c(Cl)cc3n21)c1cccc(CO)n1` (centres unmarked) [Example 97, N-[10,11-dichloro-4-oxo-3-(trifluoromethyl)-2,5,7-triazatricyclo[6.4.0.0^2,6]dodeca-1(8),6,9,11-tetraen-3-yl]-6-(hydroxymethyl)pyridine-2-carboxamide]: 190 nM; for `O=C(CCC1CCCC1)NC1(C(F)(F)F)C(=O)Nc2nc3c(F)c(F)ccc3n21` (centres unmarked) [Example 82, 3-cyclopentyl-N-[9,10-difluoro-4-oxo-3-(trifluoromethyl)-2,5,7-triazatricyclo[6.4.0.0^2,6]-dodeca-1(12),6,8,10-tetraen-3-yl]propanamide]: 1400 nM; for `O=C(NC1(C(F)(F)F)C(=O)Nc2nc3cc(Cl)c(Cl)cc3n21)c1ccccc1` (centres unmarked) [Example 38, N-[10,11-dichloro-4-oxo-3-(trifluoromethyl)-2,5,7-triazatricyclo[6.4.0.0^2,6]dodeca-1(8),6,9,11-tetraen-3-yl]benzamide]: 1000 nM.
The same measure for `Cc1cc2c(nc3n2C(NC(=O)c2ccccc2)(C(F)(F)F)C(=O)N3)c(Br)c1C` (centres unmarked) [Example 77, N-[9-bromo-10,11-dimethyl-4-oxo-3-(trifluoromethyl)-2,5,7-triazatricyclo[6.4.0.0^2,6]dodeca-1(8),6,9,11-tetraen-3-yl]benzamide]: 4300 nM; for `O=C(NC1(C(F)(F)F)C(=O)Nc2nc3cc(Cl)c(Cl)cc3n21)C1CCNC1` (mixture of isomers) [Example 42, N-[10,11-dichloro-4-oxo-3-(trifluoromethyl)-2,5,7-triazatricyclo-[6.4.0.0^2,6]dodeca-1(12),6,8,10-tetraen-3-yl]pyrrolidine-3-carboxamide]: 2000 nM; for `CC(C)(C)c1ccc(-c2cccc3c2nc2n3C(NC(=O)CCC3CCCC3)(C(F)(F)F)C(=O)N2)cc1` (centres unmarked) [Example 191, N-[9-(4-tert-butylphenyl)-4-oxo-3-(trifluoromethyl)-2,5,7-triazatricyclo[6.4.0.0^2,6]dodeca-1(12),6,8,10-tetraen-3-yl]-3-cyclopentylpropanamide]: 1490 nM.
As to `O=C(NC1(C(F)(F)F)C(=O)Nc2nc3cc(Cl)c(Cl)cc3n21)C1CCN(C(=O)C2CCCC2)C1` (racemic) [Example 50, (rac).1-cyclopentanecarbonyl-N-[10,11-dichloro-4-oxo-3-(trifluoromethyl)-2,5,7-triaza-tricyclo[6.4.0.0^2,6]dodeca-1(12),6,8,10-tetraen-3-yl]pyrrolidine-3-carboxamide], the IC50 turned out to be 2300 nM.
In the case of `Cc1ccc2c(nc3n2C(NC(=O)CCC2CCCC2)(C(F)(F)F)C(=O)N3)c1C` (centres unmarked) [Example 80, 3-cyclopentyl-N-[9,10-dimethyl-4-oxo-3-(trifluoromethyl)-2,5,7-triazatricyclo[6.4.0.0^2,6]-dodeca-1(12),6,8,10-tetraen-3-yl]propanamide], the IC50 stood at 7400 nM.
As to `O=C(CCC1CCCC1)NC1(C(F)(F)F)C(=O)Nc2nc3cc(F)c(F)cc3n21` (centres unmarked) [Example 73, 3-cyclopentyl-N-[10,11-difluoro-4-oxo-3-(trifluoromethyl)-2,5,7-triazatricyclo-[6.4.0.0^2,6]dodeca-1(12),6,8,10-tetraen-3-yl]propanamide], the IC50 was 2800 nM.
The value for `O=C(CCC1CCCC1)NC1(C(F)(F)F)C(=O)Nc2nc3c(-c4ccccc4)cccc3n21` (centres unmarked) [Example 195, 3-cyclopentyl-N-[4-oxo-9-phenyl-3-(trifluoromethyl)-2,5,7-triazatricyclo[6.4.0.0^2,6]dodeca-1(12),6,8,10-tetraen-3-yl]propanamide] was 1270 nM.

The record behind these values is patent publication US9771372B2, “Compounds useful as S100-inhibitors” (Active Biotech AB, priority 2014, dated 2017).
